Reference: ChEMBL document CHEMBL1138268, “Synthesis and evaluation of cis-1-[4-(hydroxymethyl)-2-cyclopenten-1-yl]-5-[(124)I]iodouracil: a new potential PET imaging agent for HSV1-tk expression” (J Med Chem, 2007)
pIC50: −log10 of the molar value.

Experiments:
[1] = Cytotoxicity against MCA-TK cells; format: cell-based
[2] = Cytotoxicity against MCA cells; format: cell-based
[3] = Metabolic stability in mouse serum after 6 hrs; format: ADME, cell-free
[4] = Metabolic stability in mouse liver microsomes after 30 min; format: ADME, Microsome

half-life [3] | half-life [4] | SMILES | pIC50 [1] | pIC50 [2]
 |  | Nc1nc2c(ncn2COC(CO)CO)c(=O)[nH]1 [GANCICLOVIR] | 6.82 | 3.57
22.6 h | 1.24 h | O=c1[nH]c(=O)n([C@H]2C[C@H](O)[C@@H](CO)O2)cc1I [IDOXURIDINE] |  | 
